Measured values reported in patent US20110217300A1, “Quinazolinone Compounds and Methods of Use Thereof” (priority 2007, published 2011).
Read-outs that look alike come from different tables or passages of the source.

Key:
Experiment in all cases: MTS cell viability assay
[1] = test system: SW480; assay type: cell-based; conditions: colon
Procedure: (§1) Cell viability was determined by measuring the activity of dehydrogenase enzymes in metabolically active cells using a tetrazolium compound, MTS. The assay was performed as described in Promega Technical Bulletin No. 169 (CellTiter 96 Aqueous Non-Radioactive Cell Proliferation Assay). Two human cancer cell lines were assayed (see, Table 1). Cells were maintained at 37° C. and 5% CO2 in DMEM media (4.5 g/L glucose) supplemented with 10% heat-inactivated FBS, 10 mM L-glutamine, and 10 mM Hepes pH 7.5. Briefly, cells were seeded in 96-well plates as set forth in Table 1 and incubated for 16-24 hours. Candidate compounds were serially diluted in DMSO, further diluted in cell culture media, and then added to cells (final DMSO concentration of 0.33%). Cells were incubated in the presence of candidate compound for 72 hours. MTS stock solution (MTS 2 gm/L, PMS […] in PBS) was added to the cells (final concentration MTS […] and PMS 7.67 mg/L) and incubated for 4 hours. SDS was added to a final concentration of 1.4% and absorbance at 490 nm was measured within two hours using a plate reader. […] GI50 values were given in Table 2 for the compounds listed. The Compound Numbers in Table 2 correspond to the numbers listed parenthetically in the Example titles. Where multiple measurements were made by different technicians, both values are given.
(§2) Cell viability was determined for N-(3-amino-propyl)-3-chloro-N—[(R)-1-(7-chloro-4-oxo-3-phenylamino-3,4-dihydro-quinazolin-2-yl)-but-3-ynyl]-2-fluoro-benzamide (compound I of Table 2). The cell viability assay of Example 105 was used. GI50 was determined using a variety of cell lines. Cells were plated at 100-5000 cells per well. At least 2 replicates were performed. Where multiple measurements were made by different technicians, both values are given.

[2] = test system: HCT-15; assay type: cell-based; conditions: Homo sapiens, colon
Procedure: as §1, §2

[3] = test system: NCI-H1993; assay type: cell-based; conditions: Lung adenocarcinoma
Procedure: as §1, §2

[4] = test system: DU145; assay type: cell-based; conditions: prostate
Procedure: as §1, §2

[5] = test system: A375; assay type: cell-based; conditions: skin
Procedure: as §1, §2

[6] = test system: LS411N; assay type: cell-based; conditions: Homo sapiens, LS-411N, colon
Procedure: as §1, §2

[7] = test system: CAKI-1; assay type: cell-based; conditions: Homo sapiens, kidney
Procedure: as §1, §2

[8] = test system: NCI-H661; assay type: cell-based; conditions: Homo sapiens, Large cell Lung Cancer
Procedure: as §1, §2

[9] = test system: PLC/PRF/5; assay type: cell-based; conditions: Homo sapiens, liver
Procedure: as §1, §2

[10] = test system: HT-1080; assay type: cell-based; conditions: Homo sapiens, Fibrosarcoma
Procedure: as §1, §2

[11] = test system: NCI-H1299; assay type: cell-based; conditions: Homo sapiens, Non-small cell lung carcinoma
Procedure: as §1, §2

[12] = test system: MCF-7; assay type: cell-based; conditions: breast
Procedure: as §1, §2

[13] = test system: CAKI-2; assay type: cell-based; conditions: Homo sapiens, kidney
Procedure: as §1, §2

[14] = test system: HCT-116; assay type: cell-based; conditions: Homo sapiens, colon
Procedure: as §1, §2

[15] = test system: CFPPAC-1; assay type: cell-based; conditions: Pancreasductal adenocarcinoma, cystic fibrosis
Procedure: as §1, §2

[16] = test system: Kato III; assay type: cell-based; conditions: Homo sapiens, Gastric Carcinoma
Procedure: as §1, §2

[17] = test system: PANC-1; assay type: cell-based; conditions: Homo sapiens, Pancreas epithelioid carcinoma
Procedure: as §1, §2

[18] = test system: CALU-6; assay type: cell-based; conditions: Homo sapiens, lung
Procedure: as §1, §2

[19] = test system: RKO; assay type: cell-based; conditions: Homo sapiens, Colon Carcinoma
Procedure: as §1, §2

[20] = test system: SW780; assay type: cell-based; conditions: Homo sapiens, bladder
Procedure: as §1, §2

[21] = test system: SW620; assay type: cell-based; conditions: Homo sapiens, SW-620, Colorectal adenocarcinoma
Procedure: as §1, §2

[22] = test system: NCI-H520; assay type: cell-based; conditions: Homo sapiens, Squamous cell lung carcinoma
Procedure: as §1, §2

[23] = test system: WIDR; assay type: cell-based; conditions: Homo sapiens, Colorectal adenocarcinoma
Procedure: as §1, §2

[24] = test system: KG-1a; assay type: cell-based; conditions: Homo sapiens, AML
Procedure: as §1, §2

[25] = test system: HEP-G2; assay type: cell-based; conditions: Homo sapiens, HepG2, Hepatocellular carcinoma
Procedure: as §1, §2

[26] = test system: A427; assay type: cell-based; conditions: Homo sapiens, A-427, Lung Carcinoma
Procedure: as §1, §2

[27] = test system: CCS292; assay type: cell-based; conditions: Clear cell Sarcoma
Procedure: as §1, §2

[28] = test system: SK-HEP-1; assay type: cell-based; conditions: Homo sapiens, SK-HEP1, Liver adenocarcinoma
Procedure: as §1, §2

[29] = test system: SKMES-1; assay type: cell-based; conditions: Homo sapiens, SK-MES-1, Squamous cell carcinoma
Procedure: as §1, §2

[30] = test system: LS174T; assay type: cell-based; conditions: Homo sapiens, Colorectal Carcinoma
Procedure: as §1, §2

[31] = test system: HEP-3B; assay type: cell-based; conditions: Homo sapiens, Hep3B, liver
Procedure: as §1, §2

[32] = test system: NCI-H460; assay type: cell-based, human
Summary of the method: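 72 h compound treatment, 0.33% DMSO; […] PMS 7.67 mg/L, 4 h; 1.4% SDS; […]. Cells 100-5000/well, 37° C., 5% CO2. Output GI50, ≥2 replicates.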

C#CC[C@H](c1nc2cc(Cl)ccc2c(=O)n1Nc1ccccc1)N(CCCN)C(=O)c1cccc(Cl)c1F [Compound 1, N-(3-Amino-propyl)-3-chloro-N—[(R)-1-(7-chloro-4-oxo-3-phenylamino-3,4-dihydro-quinazolin-2-yl)-but-3-ynyl]-2-fluoro-benzamide]
GI50 ([1]; Homo sapiens, SW480, SW480): 1.27 µM | GI50 ([1]; SW480, listed as I): 1.22 µM | GI50 [2]: 3.02 µM | GI50 ([3]; Homo sapiens, NCI-H1993, NCI-H1993): 2.42 µM | GI50 ([3]; NCI-H1993, listed as I): 1.66 µM | GI50 ([4]; DU145, listed as I): 0.304 µM | GI50 ([4]; Homo sapiens, DU-145, DU145): 0.303 µM | GI50 ([5]; A375, listed as I): 0.752 µM | GI50 ([5]; Homo sapiens, A-375, A375): 0.405 µM | GI50 [6]: 0.237 µM | GI50 [7]: 2.17 µM | GI50 [8]: 0.109 µM | GI50 [9]: 0.135 µM | GI50 [10]: 0.149 µM | GI50 [11]: 0.549 µM | GI50 ([12]; Homo sapiens, MCF7, MCF-7): 5.08 µM | GI50 ([12]; MCF-7, listed as I): 4.83 µM | GI50 [13]: 4.24 µM | GI50 [14]: 0.074 µM | GI50 [15]: 2.08 µM | GI50 [16]: 0.202 µM | GI50 [17]: 1.17 µM | GI50 [18]: 0.105 µM | GI50 [19]: 0.11 µM | GI50 [20]: 0.22 µM | GI50 [21]: 0.317 µM | GI50 [22]: 0.139 µM | GI50 [23]: 0.783 µM | GI50 [24]: 3.2 µM | GI50 [25]: 3.84 µM | GI50 [26]: 0.064 µM | GI50 [27]: 0.833 µM | GI50 [28]: 0.319 µM | GI50 [29]: 1 µM | GI50 [30]: 0.796 µM | GI50 [31]: 0.773 µM | GI50 ([32]; Homo sapiens, NCI-H460, 72 h, read-out: MTS NCI H460 GI50, NCI-H460 non small cell lung, 72 hours): 0.36 µM | GI50 ([32]; Homo sapiens, NCI-H460, read-out: Average GI50, NCI-H460, Large cell lung carcinoma (Table 3)): 1.1 µM | GI50 ([32]; read-out: Average GI50, NCI-H460, Large cell lung carcinoma (Table 3), listed as I): 1.05 µM
